Test results published in patent publication US20070043024A1, “Azacyclic compounds as inhibitors of sensory neurone specific channels” (priority 2003, published 2007).

Each molecule was assayed against T1, human Nav1.8 (hNav1.8) ion channel (Homo sapiens, UniProt Q9Y5Y9) (assay: Inhibition of human Nav1.8 stably expressed in SH-SY-5Y cells (membrane potential dye fluorescence assay)). Conditions: not given.
T1 construct: expressed in transfected cells
Type: cell-based

T1 sequence (Q9Y5Y9 whole entry): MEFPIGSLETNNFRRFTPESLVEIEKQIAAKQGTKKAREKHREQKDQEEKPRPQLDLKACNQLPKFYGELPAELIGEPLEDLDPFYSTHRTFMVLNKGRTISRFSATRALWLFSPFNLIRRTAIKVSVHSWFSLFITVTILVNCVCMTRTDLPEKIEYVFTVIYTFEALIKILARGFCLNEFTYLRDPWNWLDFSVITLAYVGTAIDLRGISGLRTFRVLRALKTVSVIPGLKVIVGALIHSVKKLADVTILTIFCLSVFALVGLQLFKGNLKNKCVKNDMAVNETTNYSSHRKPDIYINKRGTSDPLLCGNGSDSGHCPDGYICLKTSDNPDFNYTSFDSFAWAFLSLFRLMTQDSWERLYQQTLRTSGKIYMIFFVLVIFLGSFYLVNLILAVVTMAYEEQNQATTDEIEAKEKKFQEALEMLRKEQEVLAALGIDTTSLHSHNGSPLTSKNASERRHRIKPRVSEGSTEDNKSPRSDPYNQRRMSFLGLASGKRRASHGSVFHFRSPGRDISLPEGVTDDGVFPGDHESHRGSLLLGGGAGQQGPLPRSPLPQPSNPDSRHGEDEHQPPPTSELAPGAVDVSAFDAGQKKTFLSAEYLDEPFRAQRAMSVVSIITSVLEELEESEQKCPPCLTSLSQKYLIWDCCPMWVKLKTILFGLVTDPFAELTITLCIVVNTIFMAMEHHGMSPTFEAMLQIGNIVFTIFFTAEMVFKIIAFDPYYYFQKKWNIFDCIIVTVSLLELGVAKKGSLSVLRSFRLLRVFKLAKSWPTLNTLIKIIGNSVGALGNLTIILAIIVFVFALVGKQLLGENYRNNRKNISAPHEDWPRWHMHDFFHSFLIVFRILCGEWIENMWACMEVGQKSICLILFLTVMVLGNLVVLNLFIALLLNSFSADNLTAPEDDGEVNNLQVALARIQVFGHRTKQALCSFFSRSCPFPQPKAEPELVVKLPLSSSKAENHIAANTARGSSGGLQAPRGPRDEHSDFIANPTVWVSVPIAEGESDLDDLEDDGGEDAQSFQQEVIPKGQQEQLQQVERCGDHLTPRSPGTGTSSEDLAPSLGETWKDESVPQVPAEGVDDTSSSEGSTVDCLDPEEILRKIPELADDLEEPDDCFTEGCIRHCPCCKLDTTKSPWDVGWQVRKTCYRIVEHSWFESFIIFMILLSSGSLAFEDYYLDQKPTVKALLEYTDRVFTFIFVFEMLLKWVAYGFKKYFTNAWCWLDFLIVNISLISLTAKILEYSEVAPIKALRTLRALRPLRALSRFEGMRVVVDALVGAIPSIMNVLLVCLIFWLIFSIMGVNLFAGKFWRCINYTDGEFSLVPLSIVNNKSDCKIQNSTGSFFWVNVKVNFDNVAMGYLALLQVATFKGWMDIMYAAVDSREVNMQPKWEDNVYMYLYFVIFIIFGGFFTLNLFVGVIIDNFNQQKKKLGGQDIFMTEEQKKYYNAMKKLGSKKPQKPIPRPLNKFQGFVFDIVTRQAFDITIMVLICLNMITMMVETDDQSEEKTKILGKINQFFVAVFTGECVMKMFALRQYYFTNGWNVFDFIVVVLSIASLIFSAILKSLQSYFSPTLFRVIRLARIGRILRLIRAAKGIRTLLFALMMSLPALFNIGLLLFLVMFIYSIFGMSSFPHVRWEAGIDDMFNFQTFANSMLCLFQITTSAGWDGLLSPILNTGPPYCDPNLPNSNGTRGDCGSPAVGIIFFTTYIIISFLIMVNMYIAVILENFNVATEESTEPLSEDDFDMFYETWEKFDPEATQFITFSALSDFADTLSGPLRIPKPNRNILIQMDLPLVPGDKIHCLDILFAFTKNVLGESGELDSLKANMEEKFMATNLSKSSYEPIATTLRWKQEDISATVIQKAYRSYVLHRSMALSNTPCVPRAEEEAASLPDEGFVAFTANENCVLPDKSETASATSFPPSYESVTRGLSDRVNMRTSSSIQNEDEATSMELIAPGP

Question: For `O=C(CN1CCc2cccc(O)c2C1)N(c1ccccc1)c1ccc(O)cc1` [Compound 176, 2-(8-Hydroxy-3,4-dihydro-1H-isoquinolin-2-yl)-N-(4-hydroxy-phenyl)-N-phenyl-acetamide], which IC50 is on record?
Answer: The IC50 was 5.95 µM.

Same assay, conditions: Table 2 (compound numbers of the list in the description); SH-SY-5Y hNav1.8 cells, inhibition of membrane depolarisation, FLIPR membrane potential dye, 250 nM TTX, test concentration range 100 μM-0.05 μM; read-out: IC50

Question: Which IC50 does the source give for `COc1cccc2c1CN(CC(=O)NN(c1ccccc1)c1ccccc1)CC2` [Compound 168, (8-Methoxy-3,4-dihydro-1H-isoquinolin-2-yl)-acetic acid N′,N′-diphenyl-hydrazide] here?
Answer: Its IC50 is 2.01 µM.

Question: How did the IC50 turn out when `COc1cc2c(cc1OC)CN(CC(=O)NN(c1ccccc1)c1ccccc1)CC2` [Compound 169, (6,7-Dimethoxy-3,4-dihydro-1H-isoquinolin-2-yl)-acetic acid N′,N′-diphenyl-hydrazide] was run?
Answer: The IC50 was 29.9 µM.

Question: `CCOC(=O)C1CN(C(=O)CN2CCc3cccc(O)c3C2)c2ccccc2O1` (stereo not shown) [Compound 170, 4-[2-(8-Hydroxy-3,4-dihydro-1H-isoquinolin-2-yl)-acetyl]-3,4-dihydro-2H-benzo[1,4]oxazine-2-carboxylic acid ethyl ester] was tested. Which IC50 did it give?
Answer: Its IC50 is 1.69 µM.

Question: For `CCOC(=O)C1CN(C(=O)CN2CCc3cccc(OC)c3C2)c2ccccc2O1` (stereo not shown) [Compound 171, 4-[2-(8-Methoxy-3,4-dihydro-1H-isoquinolin-2-yl)-acetyl]-3,4-dihydro-2H-benzo[1,4]oxazine-2-carboxylic acid ethyl ester], which IC50 is on record?
Answer: Its IC50 is 1.75 µM.

Question: With `COc1cccc2c1CN(CC(=O)Nc1ccc(Oc3ccccc3)cc1)CC2` [Compound 172, 2-(8-Methoxy-3,4-dihydro-1H-isoquinolin-2-yl)-N-(4-phenoxy-phenyl)-acetamide] as the molecule, how does the IC50 read?
Answer: Its IC50 is 6.27 µM.

Question: `O=C(CN1CCc2cccnc2C1)N1c2ccccc2Oc2ccccc21` [Compound 173, 2-(5,8-Dihydro-6H-[1,7]naphthyridin-7-yl)-1-phenoxazin-10-yl-ethanone] was tested. Which IC50 did it give?
Answer: The IC50 was 5.64 µM.

Question: With `COc1cccc2c1CN(CCNC(=O)Nc1ccc(Oc3ccccc3)cc1)CC2` [Compound 174, 1-[2-(8-Methoxy-3,4-dihydro-1H-isoquinolin-2-yl)-ethyl]-3-(4-phenoxy-phenyl)-urea] as the molecule, how does the IC50 read?
Answer: Its IC50 is 0.55 µM.

Question: `Nc1cccc2c1CN(CC(=O)N1c3ccccc3Oc3ccccc31)CC2` [Compound 175, 2-(8-Amino-3,4-dihydro-1H-isoquinolin-2-yl)-1-phenoxazin-10-yl-ethanone] was tested. Which IC50 did it give?
Answer: The IC50 was 1.53 µM.

Question: With `O=C(CN1Cc2ccccc2C1)N1c2ccccc2Oc2ccccc21` [Compound 178, 2-(1,3-Dihydro-isoindol-2-yl)-1-phenoxazin-10-yl-ethanone] as the molecule, how does the IC50 read?
Answer: Its IC50 is 0.62 µM.

Question: Which IC50 does the source give for `COc1cccc2c1CN(CC(=O)NC1c3ccccc3Oc3ccccc31)CC2` [Compound 180, 2-(8-Methoxy-3,4-dihydro-1H-isoquinolin-2-yl)-N-(9H-xanthen-9-yl)-acetamide] here?
Answer: The IC50 was 5.19 µM.

Question: `O=C(CN1CCc2cccnc2C1)N(c1ccccc1)c1ccccc1` [Compound 181, 2-(5,8-Dihydro-6H-[1,7]naphthyridin-7-yl)-N,N-diphenyl-acetamide] was tested. Which IC50 did it give?
Answer: The IC50 was 20.4 µM.

Question: With `COc1ccc(N(C(=O)CN2CCc3cccc(OC)c3C2)c2ccc(OC)cc2)cc1` [Compound 182, 2-(8-Methoxy-3,4-dihydro-1H-isoquinolin-2-yl)-N,N-bis-(4-methoxy-phenyl)-acetamide] as the molecule, how does the IC50 read?
Answer: The IC50 was 2.14 µM.

Question: For `COc1ccc(N(C(=O)CN2CCc3cccc(O)c3C2)c2ccc(OC)cc2)cc1` [Compound 183, 2-(8-Hydroxy-3,4-dihydro-1H-isoquinolin-2-yl)-N,N-bis-(4-methoxy-phenyl)-acetamide], which IC50 is on record?
Answer: The IC50 was 2.26 µM.

Question: How did the IC50 turn out when `COc1cccc2c1CN(CC(=O)Nc1ccccc1Oc1ccccc1)CC2` [Compound 184, 2-(8-Methoxy-3,4-dihydro-1H-isoquinolin-2-yl)-N-(2-phenoxy-phenyl)-acetamide] was run?
Answer: Its IC50 is 10.9 µM.

Question: `O=C(CN1CCc2cccc(O)c2C1)Nc1ccccc1Oc1ccccc1` [Compound 185, 2-(8-Hydroxy-3,4-dihydro-1H-isoquinolin-2-yl)-N-(2-phenoxy-phenyl)-acetamide] was tested. Which IC50 did it give?
Answer: The IC50 was 1.85 µM.

Question: How did the IC50 turn out when `COc1cccc2c1CN(CC(=O)NNC(=O)N(c1ccccc1)c1ccccc1)CC2` [Compound 186, 1-[(8-Methoxy-3,4-dihydro-1H-isoquinolin-2-yl)-acetyl]-4,4-diphenylsemicarbazide] was run?
Answer: Its IC50 is 29.1 µM.

Question: How did the IC50 turn out when `COc1cccc2c1CN(CC(=O)N1CC(c3nnc(C)o3)Oc3ccccc31)CC2` (stereo not shown) [Compound 187, 2-(8-Methoxy-3,4-dihydro-1H-isoquinolin-2-yl)-1-[2-(5-methyl-[1,3,4]oxadiazol-2-yl)-2,3-dihydro-benzo[1,4]oxazin-4-yl]-ethanone] was run?
Answer: Its IC50 is 19.1 µM.

Question: With `COc1cccc2c1CN(CC(=O)N(c1ccccc1O)c1ncccc1N)CC2` [Compound 188, N-(3-Amino-pyridin-2-yl)-N-(2-hydroxy-phenyl)-2-(8-methoxy-3,4-dihydro-1H-isoquinolin-2-yl)-acetamide] as the molecule, how does the IC50 read?
Answer: The IC50 was 12 µM.

Question: Which IC50 does the source give for `COc1cccc2c1CN(CCC(=O)N1c3ccccc3Oc3ccccc31)CC2` [Compound 189, 3-(8-Methoxy-3,4-dihydro-1H-isoquinolin-2-yl)-1-phenoxazin-10-yl-propan-1-one] here?
Answer: The IC50 was 0.51 µM.

Question: `O=C(CCN1CCc2cccc(O)c2C1)N1c2ccccc2Oc2ccccc21` [Compound 190, 3-(8-Hydroxy-3,4-dihydro-1H-isoquinolin-2-yl)-1-phenoxazin-10-yl-propan-1-one] was tested. Which IC50 did it give?
Answer: Its IC50 is 0.53 µM.

Question: With `CS(=O)(=O)Oc1cccc2c1CN(CC(=O)N1c3ccccc3Oc3ccccc31)CC2` [Compound 191, Methanesulfonic acid 2-(2-oxo-2-phenoxazin-10-yl-ethyl)-1,2,3,4-tetrahydro-isoquinolin-8-yl ester] as the molecule, how does the IC50 read?
Answer: Its IC50 is 1.27 µM.

Question: How did the IC50 turn out when `COc1cccc2c1CN(CC(=O)N1CCOc3ccccc31)CC2` [Compound 192, 1-(2,3-Dihydro-benzo[1,4]oxazin-4-yl)-2-(8-methoxy-3,4-dihydro-1H-isoquinolin-2-yl)-ethanone] was run?
Answer: Its IC50 is 9.06 µM.

Question: Which IC50 does the source give for `O=C(CN1CCc2ccc(O)cc2C1)N1c2ccccc2Oc2ccccc21` [Compound 193, 2-(7-Hydroxy-3,4-dihydro-1H-isoquinolin-2-yl)-1-phenoxazin-10-yl-ethanone] here?
Answer: Its IC50 is 3.17 µM.

Question: Which IC50 does the source give for `O=C(CN1CCc2cc(O)ccc2C1)N1c2ccccc2Oc2ccccc21` [Compound 194, 2-(6-Hydroxy-3,4-dihydro-1H-isoquinolin-2-yl)-1-phenoxazin-10-yl-ethanone] here?
Answer: The IC50 was 2.89 µM.

Question: Which IC50 does the source give for `O=C(CN1CCc2c(O)cccc2C1)N1c2ccccc2Oc2ccccc21` [Compound 195, 2-(5-Hydroxy-3,4-dihydro-1H-isoquinolin-2-yl)-1-phenoxazin-10-yl-ethanone] here?
Answer: The IC50 was 1.85 µM.

Question: Which IC50 does the source give for `COc1cccc2c1CN(CC(=O)N1c3ccccc3Oc3ccccc31)C2` [Compound 196, 2-(4-Methoxy-1,3-dihydro-isoindol-2-yl)-1-phenoxazin-10-yl-ethanone] here?
Answer: The IC50 was 0.93 µM.

Question: For `CS(=O)(=O)N(c1cccc2c1CN(CC(=O)N1c3ccccc3Oc3ccccc31)CC2)S(C)(=O)=O` [Compound 197, N-Methanesulfonyl-N-[2-(2-oxo-2-phenoxazin-10-yl-ethyl)-1,2,3,4-tetrahydro-isoquinolin-8-yl]-methanesulfonamide], which IC50 is on record?
Answer: Its IC50 is 3.83 µM.

Question: With `CS(=O)(=O)Nc1cccc2c1CN(CC(=O)N1c3ccccc3Oc3ccccc31)CC2` [Compound 198, N-[2-(2-Oxo-2-phenoxazin-10-yl-ethyl)-1,2,3,4-tetrahydro-isoquinolin-8-yl]-methanesulfonamide] as the molecule, how does the IC50 read?
Answer: The IC50 was 1.83 µM.

Question: For `COc1cccc2c1CN(CC(=O)N1c3ccccc3Oc3cnn(C)c31)CC2` [Compound 199, 2-(8-Methoxy-3,4-dihydro-1H-isoquinolin-2-yl)-1-(1-methyl-1H-4-oxa-1,2,9-triaza-cyclopenta[b]naphthalen-9-yl)-ethanone], which IC50 is on record?
Answer: The IC50 was 8.26 µM.

Question: How did the IC50 turn out when `COc1cccc2c1CN(C(C)C(=O)N1c3ccccc3Oc3ccccc31)CC2` (stereo not shown) [Compound 200, 2-(8-Methoxy-3,4-dihydro-1H-isoquinolin-2-yl)-1-phenoxazin-10-yl-propan-1-one] was run?
Answer: The IC50 was 1.66 µM.

Question: Which IC50 does the source give for `O=C(NCCN1CCc2cccnc2C1)N1c2ccccc2Oc2ccccc21` [Compound 201, Phenoxazine-10-carboxylic acid [2-(5,8-dihydro-6H-[1,7]naphthyridin-7-yl)-ethyl]-amide] here?
Answer: The IC50 was 6.09 µM.

Question: With `O=C(CN1Cc2cccc(O)c2C1)N1c2ccccc2Oc2ccccc21` [Compound 202, 2-(4-Hydroxy-1,3-dihydro-isoindol-2-yl)-1-phenoxazin-10-yl-ethanone] as the molecule, how does the IC50 read?
Answer: Its IC50 is 0.68 µM.

Question: Which IC50 does the source give for `CS(=O)(=O)Oc1cccc2c1CN(CC(=O)N1c3ccccc3Oc3ccccc31)C2` [Compound 203, Methanesulfonic acid 2-(2-oxo-2-phenoxazin-10-yl-ethyl)-2,3-dihydro-1H-isoindol-4-yl ester] here?
Answer: The IC50 was 1.11 µM.

Question: Which IC50 does the source give for `COc1cccc2c1CN(CC(=O)n1c3ccccc3c3ccccc31)CC2` [Compound 204, 1-Carbazol-9-yl-2-(8-methoxy-3,4-dihydro-1H-isoquinolin-2-yl)-ethanone] here?
Answer: Its IC50 is 10.7 µM.

Question: `COc1cccc2c1CN(CC(=O)N1c3ccccc3OCC1C)CC2` (stereo not shown) [Compound 205, 2-(8-Methoxy-3,4-dihydro-1H-isoquinolin-2-yl)-1-(3-methyl-2,3-dihydro-benzo[1,4]oxazin-4-yl)-ethanone] was tested. Which IC50 did it give?
Answer: The IC50 was 4.63 µM.

Question: How did the IC50 turn out when `COc1cccc2c1CN(CC(=O)N1c3ccccc3OCC1C(C)(C)C)CC2` (stereo not shown) [Compound 206, 1-(3-tert-Butyl-2,3-dihydro-benzo[1,4]oxazin-4-yl)-2-(8-methoxy-3,4-dihydro-1H-isoquinolin-2-yl)-ethanone] was run?
Answer: The IC50 was 1.62 µM.

Question: For `COc1cccc2c1CN(CC(=O)N1Cc3ccccc3Oc3ccccc31)CC2` [Compound 207, 1-(11H-Dibenzo[b,f][1,4]oxazepin-10-yl)-2-(8-methoxy-3,4-dihydro-1H-isoquinolin-2-yl)-ethanone], which IC50 is on record?
Answer: Its IC50 is 0.94 µM.

Question: With `CCC1COc2ccccc2N1C(=O)CN1CCc2cccc(OC)c2C1` (stereo not shown) [Compound 208, 1-(3-Ethyl-2,3-dihydro-benzo[1,4]oxazin-4-yl)-2-(8-methoxy-3,4-dihydro-1H-isoquinolin-2-yl)-ethanone] as the molecule, how does the IC50 read?
Answer: Its IC50 is 1.68 µM.

Question: With `CS(=O)(=O)Nc1cccc2c1CN(CC(=O)N1c3ccccc3Oc3ccccc31)C2` [Compound 210, N-[2-(2-Oxo-2-phenoxazin-10-yl-ethyl)-2,3-dihydro-1H-isoindol-4-yl]-methanesulfonamide] as the molecule, how does the IC50 read?
Answer: The IC50 was 3.46 µM.
